{
  "source": "paper PMC9228152",
  "about": "“New Amino Naphthoquinone Derivatives as Anti-Trypanosoma cruzi Agents Targeting Trypanothione Reductase” (Pharmaceutics, 2022)",
  "key": {"[1]": {"system": "T. cruzi epimastigotes, INC-5 strain", "assay": "Growth inhibition of T. cruzi epimastigotes, INC-5 strain", "format": "cell-based, Trypanosoma cruzi", "conditions": "epimastigotes, INC-5 strain, five days, means of three independent experiments, read-out: Epi INC-5 IC50", "description": "(§1) Epimastigotes from T. cruzi strains NINOA and INC-5 were cultured in BHI (brain heart infusion broth, 89%) axenic medium, as reported in [26], at an initial concentration of 1 × 10^6 parasites/mL, at 28 °C, supplemented with 10% foetal bovine serum and 1% sodium penicillin-streptomycin. […] On the last day, the absorbance of the cultures was measured and related to the control. All measurements were carried out in triplicate. No toxic effect was attributable to DMSO. Since parasite growth is exponential, the data were analysed according to a first order equation, and the respective growth constant (k), corresponding to the slope, was calculated for controls and parasites treated with different drug concentrations. From these measurements, percentage growth inhibition (%GI) and half-maximal inhibitory concentration (IC50) values were calculated."}, "[2]": {"system": "T. cruzi trypomastigotes, INC-5 strain", "assay": "microbe, parasite or virus in culture", "format": "cell-based", "conditions": "Trypanosoma cruzi; bloodstream trypomastigotes, INC-5 strain; 24 h at 4 °C; read-out: Trypo INC-5 LC50 (half-maximal lytic concentration)", "description": "(§2) Those compounds with the lowest IC50 values in the epimastigote studies of each strain were evaluated in trypomastigotes. For this purpose, bloodstream trypomastigotes of INC-5 and NINOA strains were used for peritoneal injection into 6−8-week-old CD1 mice. The peak of parasitemia was achieved after 4–6 weeks, at which time parasitised blood samples were obtained by cardiac puncture using sodium heparin as an anticoagulant and diluted to a concentration of 1 × 10^6 trypomastigotes/mL. 10 µL of each of the dilutions of the study compounds and Bzn, with these being placed in a 96-well plate, and 90 µL of infected blood was added, providing a final volume of 100 µL per well. The microplates were incubated at 4 °C for 24 h, and concentrations of 20 µM, 10 µM, and 5 µM of each compound were considered in these experiments. Each evaluation was performed in triplicate. Wells with untreated blood trypomastigotes were used as a negative lysis control and Bzn as a positive control. Then, the degree of lysis of trypomastigotes was determined by their reduction in number using an optical microscope according to the Brener–Pizzi method. For this purpose, 5 μL of blood was placed between a slide and a 13 × 13 coverslip. Mobile trypomastigotes were counted in 15 microscope fields at 40× magnification. Quantification of the degree of lysis for each case was expressed as a percentage considering the number of viable trypomastigotes with respect to the negative control. The half-maximal lytic concentration (LC50) was determined by linear regression. The experiments were carried out in accordance with the recommendations and approval of the local Ethics and Research Committee (Approval number: ENCB/CEI/078/2020)."}, "[3]": {"system": "T. cruzi trypomastigotes, NINOA strain", "assay": "microbe, parasite or virus in culture", "format": "cell-based", "conditions": "Trypanosoma cruzi; bloodstream trypomastigotes, NINOA strain; 24 h at 4 °C; read-out: Trypo NINOA LC50 (half-maximal lytic concentration)", "description": "as §2"}, "J774 murine macrophages": {"system": "J774 murine macrophages", "assay": "Cytotoxicity on J774 macrophages (MTT)", "format": "cell-based", "conditions": "J774 macrophages, MTT, 24 h, read-out: J774 IC50", "description": "Cytotoxicity assays for the compounds selected for their trypanocidal activity were performed on J774 macrophage cells using the MTT method. For this purpose, 50,000 cells/well resuspended in RPMI medium and 2% foetal bovine serum were seeded in a 96-well plate and incubated for 24 h at 37 °C. […] After 24 h of incubation, the existing culture medium was replaced in the plate with fresh culture medium along with […] each of the compound dilutions (100 to 1.25 μM) and Bzn to a final volume of 100 µL per well. This plate was then incubated in 5% CO2 for 24 h at 37 °C. The controls used were cells with medium as a positive control and cells without culture medium as a negative control. After the 24 h incubation, the morphology of the macrophages was observed under a microscope and then the culture medium was removed again and the MTT solution (5 mg/mL) was added. After 1 h incubation at 37 °C, the absorbance at 570 nm was recorded on an Elisa Epoch reader. The following formula was used to calculate the % cytotoxicity: %cytotoxicity = (100 − (mean number of cells with treatment/cells without treatment) × 100)."}, "recombinant TcTR": {"molecular_target": "recombinant TcTR (Trypanosoma cruzi, UniProt P28593)", "sequence (P28593 whole entry)": "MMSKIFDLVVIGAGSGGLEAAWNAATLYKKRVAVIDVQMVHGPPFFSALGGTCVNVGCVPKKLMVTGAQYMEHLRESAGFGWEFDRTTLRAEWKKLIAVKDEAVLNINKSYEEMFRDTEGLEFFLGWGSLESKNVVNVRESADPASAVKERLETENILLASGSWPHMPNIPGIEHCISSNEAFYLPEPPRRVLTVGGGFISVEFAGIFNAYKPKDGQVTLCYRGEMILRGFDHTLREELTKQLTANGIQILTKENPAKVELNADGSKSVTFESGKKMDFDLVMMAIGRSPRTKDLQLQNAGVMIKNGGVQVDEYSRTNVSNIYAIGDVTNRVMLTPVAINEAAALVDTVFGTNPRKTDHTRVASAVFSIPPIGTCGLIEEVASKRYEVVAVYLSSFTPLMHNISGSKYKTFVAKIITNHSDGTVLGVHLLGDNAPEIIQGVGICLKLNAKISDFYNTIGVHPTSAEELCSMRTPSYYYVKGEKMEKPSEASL", "assay": "Trypanothione reductase inhibition assay (TS2-dependent NADPH oxidation)", "format": "biochemical", "conditions": "for Ki: mixed-type inhibition, global nonlinear regression", "description": "The inhibition of TcTR activity by 7j was evaluated by monitoring the trypanothione disulphide (TS2)-dependent NADPH oxidation by using the assay described before. The reaction mixture contained assay buffer (40 mM HEPES pH 7.4, 1 mM EDTA), recombinant TcTR (88-168 ng/mL), NADPH (the concentration depended on experiment), and different 7j concentrations when required, in a volume of 500 μL. The mixture was incubated at 37 °C for 3 min, and TS2 was added to start the reaction. The absorbance at 340 nm was recorded in real time for 10 min, and the activity was calculated from the slope of the curves as μmol of NADPH oxidised per min (e^340 = 6.22 mM^−1 cm^−1)."}, "[4]": {"system": "trypomastigote cultures (Y strain)", "set-up": "method as in PMID 28215783", "conditions": "cited from earlier work"}, "[5]": {"system": "Y strain of T. cruzi epimastigote", "set-up": "method as in doi:10.1039/C5RA10122K", "conditions": "read-out: IC50 against Y strain of T. cruzi epimastigote; cited from earlier work"}, "[6]": {"system": "NINOA strain of T. cruzi trypomastigotes", "set-up": "method as in PMID 31709599", "conditions": "cited from earlier work"}, "J774 cells": {"system": "J774 cells", "set-up": "method as in PMID 31709599", "conditions": "cited from earlier work"}, "[7]": {"system": "T. cruzi epimastigotes, NINOA strain", "assay": "Growth inhibition of T. cruzi epimastigotes, NINOA strain", "format": "cell-based", "conditions": "Trypanosoma cruzi, 120 h, epimastigotes, NINOA strain; five days; means of three independent experiments; read-out: Epi NINOA IC50", "description": "as §1"}, "[8]": {"system": "epimastigotes of the Tulahuén strain", "set-up": "method as in PMID 25127463", "conditions": "read-out: IC50 against epimastigotes of the Tulahuén strain; cited from earlier work"}, "T. cruzi trypomastigotes": {"system": "T. cruzi trypomastigotes", "set-up": "method as in PMID 30670432", "conditions": "cited from earlier work"}, "[9]": {"conditions": "alpha of the mixed-type inhibitor equation, replots of slope and 1/v axis intercept vs. 7j"}},
  "note": "Like-named read-outs stand apart in the source and are kept apart here.",
  "data": [
    {"smiles": "O=C1C(Cl)=C(N2CCC(NC(=O)c3cccc4ccccc34)CC2)C(=O)c2ccccc21", "note": "[Compound 7j, N-(1-(3-chloro-1,4-dioxo-1,4-dihydronaphthalen-2-yl)piperidin-4-yl)-1-naphthamide]", "values": [
      {"measurement": "IC50", "setting": "[1]; Trypanosoma cruzi, 120 h", "result": "< 1", "unit": "µM"},
      {"measurement": "IC50", "setting": "[1]", "result": "0.92 ± 0.01", "unit": "µM"},
      {"measurement": "LC50", "setting": "[2]", "result": "59.7 ± 3.72", "unit": "µM"},
      {"measurement": "LC50", "setting": "[3]", "result": "98.1 ± 8.9", "unit": "µM"},
      {"measurement": "IC50", "setting": "J774 murine macrophages", "result": 33, "unit": "µM"},
      {"measurement": "IC50", "setting": "J774 murine macrophages; Mus musculus, J774, 24 h", "result": "~25", "unit": "µM"},
      {"measurement": "α NADPH", "setting": "recombinant TcTR; [9]", "result": 1.12},
      {"measurement": "α TS2", "setting": "recombinant TcTR; [9]", "result": 0.77},
      {"measurement": "Ki", "setting": "recombinant TcTR; NADPH varied, TS2 fixed 200 µM, read-out: Ki 7j vs. NADPH", "result": "18 ± 3.5", "unit": "µM"},
      {"measurement": "Ki", "setting": "recombinant TcTR; TS2 varied, NADPH fixed 160 µM, read-out: Ki 7j vs. TS2", "result": "28 ± 4.5", "unit": "µM"},
      {"measurement": "Type of enzyme inhibition", "setting": "recombinant TcTR; with respect to both substrates, TS2 and NADPH, Lineweaver-Burk plots", "result": "simple mixed-type inhibitor"}
    ]},
    {"smiles": "Clc1ccc2nccc(NCCN3CCOCC3)c2c1", "note": "[V]", "values": [
      {"measurement": "IC50", "setting": "[4]", "result": 67.7, "unit": "µM"}
    ]},
    {"smiles": "O=C1C=C(Oc2cccc([N+](=O)[O-])c2)C(=O)c2ccccc21", "note": "[II, 2-(3-nitrophenoxy)-1,4-naphthoquinone]", "values": [
      {"measurement": "IC50", "setting": "[5]", "result": 0.02, "unit": "µM"}
    ]},
    {"smiles": "Cc1ccc(OC2=C(Cl)C(=O)c3ccccc3C2=O)cc1[N+](=O)[O-]", "note": "[III]", "values": [
      {"measurement": "IC50", "setting": "[6]", "result": 9.38, "unit": "µM"},
      {"measurement": "IC50", "setting": "J774 cells", "result": 117, "unit": "µM"}
    ]},
    {"smiles": "O=C(Cn1ccnc1[N+](=O)[O-])NCc1ccccc1", "note": "[Bzn, benznidazole, reference compound]", "values": [
      {"measurement": "IC50", "setting": "[7]", "result": "8.21 ± 1.8", "unit": "µM"},
      {"measurement": "IC50", "setting": "[1]; Trypanosoma cruzi, 120 h", "result": "42.3 ± 5.8", "unit": "µM"},
      {"measurement": "LC50", "setting": "[2]", "result": "85.6 ± 4.23", "unit": "µM"},
      {"measurement": "LC50", "setting": "[3]", "result": "> 100", "unit": "µM"},
      {"measurement": "IC50", "setting": "J774 murine macrophages; Mus musculus, J774, 24 h", "result": 352, "unit": "µM"},
      {"measurement": "IC50", "setting": "[6]", "result": 40.7, "unit": "µM"},
      {"measurement": "IC50", "setting": "J774 cells", "result": 352, "unit": "µM"}
    ]},
    {"smiles": "CCCCCCOc1ccc(NC2=CC(=O)c3ccccc3C2=O)cc1", "note": "[I]", "values": [
      {"measurement": "IC50", "setting": "[8]", "result": 1.72, "unit": "µM"}
    ]},
    {"smiles": "O=C(Nc1nc(-c2ccccc2)c[nH]1)N1CCN(c2ccc(C(F)(F)F)cc2[N+](=O)[O-])CC1", "note": "[VI]", "values": [
      {"measurement": "IC50", "setting": "T. cruzi trypomastigotes", "result": 2.2, "unit": "µM"}
    ]}
  ]
}
